Where a SMILES comes first, the peptide text is derived from it. Bridges are numbered along the chain shown (N, C = ends). [ ]: non-standard residue; d: D form. R8 = C=CCCCCCC[C@@](C)(N)C(=O)O; hLeu = CC(C)CC[C@H](N)C(=O)O; S5 = C=CCCC[C@](C)(N)C(=O)O
Legend:
Caspase 3 = Caspase 3 detection assay in SJSA1 cells; assay type: cell-based; conditions: 48 h, Caspase 3 activation over DMSO-treated cells; for caspase 0.3 uM: 0.3 uM peptide; for caspase 3 uM: 3 uM peptide; for caspase 10 uM: 10 uM peptide; for caspase 30 uM: 30 uM peptide
SJSA-1 cells = experiment: Cell lysis by peptidomimetic macrocycles (LDH release); assay type: cell-based; conditions: 1 h at 37C
Experimental: On the day of the assay, media was exchanged with RPMI 1% FBS media, 90 uL of media per well.
10 mM stock solutions of the peptidomimetic macrocycles were prepared in 100% DMSO.
The negative control (non-lytic) sample was 0.5% DMSO alone and positive control (lytic) samples include 10 uM Melittin and 1% Triton X-100.
Cell plates were incubated for 1 hour at 37C. After the 1 hour incubation, the morphology of the cells is examined by microscope and then the plates were centrifuged at 1200 rpm for 5 minutes at room temperature. 40 uL of supernatant for each peptidomimetic macrocycle and control sample is transferred to clear assay plates.

MDM2 = MDM2 (Homo sapiens, UniProt Q00987); experiment: Competitive fluorescence polarization assay for MDM2; assay type: binding; conditions: competitive FP assay, MDM2; for IC50: read-out: IC50 (MDM2); for Ki: read-out: Ki (MDM2)
Sequence of MDM2 (Q00987 1-125): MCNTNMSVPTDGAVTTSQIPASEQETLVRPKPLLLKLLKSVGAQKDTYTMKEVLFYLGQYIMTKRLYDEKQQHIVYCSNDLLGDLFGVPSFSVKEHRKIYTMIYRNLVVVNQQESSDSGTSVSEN

MDMX = target: T1, MDMX (Homo sapiens, UniProt O15151); experiment: Competitive fluorescence polarization assay for MDMX; assay type: binding; conditions: competitive FP assay; for IC50: read-out: IC50 (MDMX); for Ki: read-out: Ki (MDMX)
T1 sequence (O15151 1-125): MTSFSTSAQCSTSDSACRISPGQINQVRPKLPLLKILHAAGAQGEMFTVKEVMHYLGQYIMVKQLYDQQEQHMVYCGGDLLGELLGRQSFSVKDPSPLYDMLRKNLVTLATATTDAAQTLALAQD

Structure (SMILES)	caspase 0.3 uM (Caspase 3)	caspase 3 uM (Caspase 3)	caspase 10 uM (Caspase 3)	caspase 30 uM (Caspase 3)	6.25 uM % Lysed cells (1 h LDH) (SJSA-1 cells)	25 uM % Lysed cells (1 h LDH) (SJSA-1 cells)	50 uM % Lysed cells (1 h LDH) (SJSA-1 cells)	IC50 (MDM2)	Ki (MDM2)	IC50 (MDMX)	Ki (MDMX)
CC(=O)N[C@@H](CC(C)C)C(=O)N[C@H](C(=O)N[C@@H](Cc1ccccc1)C(=O)N[C@]1(C)CCCCCC/C=C\CCC[C@@](C)(C(=O)N[C@@H](CO)C(=O)N[C@@H](C)C(=O)N[C@@H](C)C(N)=O)NC(=O)[C@H](CCC(C)C)NC(=O)[C@H](CCC(N)=O)NC(=O)[C@H](C)NC(=O)[C@H](Cc2c[nH]c3ccccc23)NC(=O)[C@H](Cc2ccc(O)cc2)NC(=O)[C@H](C)NC1=O)[C@@H](C)O [compound 114] (Ac-LTF[R8]AYWAQ[hLeu][S5]SAA-NH2; staple (Z) 4-11)	1	6	28	34	3%	4%	9%	10 to 100 nM	< 10 nM	100 to 1000 nM	10 to 100 nM
CC(=O)N[C@@H](CC(C)C)C(=O)N[C@H](C(=O)N[C@@H](Cc1ccccc1)C(=O)N[C@]1(C)CCCCCC/C=C/CCC[C@@](C)(C(=O)N[C@@H](CO)C(=O)N[C@@H](C)C(=O)N[C@@H](C)C(N)=O)NC(=O)[C@H](CCC(C)C)NC(=O)[C@H](CCC(N)=O)NC(=O)[C@H](C)NC(=O)[C@H](Cc2c[nH]c3ccccc23)NC(=O)[C@H](Cc2ccc(O)cc2)NC(=O)[C@H](C)NC1=O)[C@@H](C)O [compound 115] (Ac-LTF[R8]AYWAQ[hLeu][S5]SAA-NH2; staple (E) 4-11)	1	10	26	32	0%	−1%	6%	< 10 nM	< 10 nM	100 to 1000 nM	10 to 100 nM
CC(=O)N[C@@H](CC(C)C)C(=O)N[C@H](C(=O)N[C@@H](Cc1ccccc1)C(=O)N[C@]1(C)CCCCCCC=CCCC[C@@](C)(C(=O)N[C@@H](CO)C(=O)N[C@H](C(=O)N[C@@H](CO)C(N)=O)C(C)C)NC(=O)[C@H](CC(C)C)NC(=O)[C@H](CCC(N)=O)NC(=O)[C@H](C)NC(=O)[C@H](Cc2c[nH]c3ccccc23)NC(=O)[C@H](Cc2ccc(O)cc2)NC(=O)[C@H](C)NC1=O)[C@@H](C)O [compound 121] (Ac-LTF[R8]AYWAQL[S5]SVS-NH2; staple 4-11)	1	5	19	30	1%	1%	7%	< 10 nM	< 10 nM	100 to 1000 nM	10 to 100 nM
CC(=O)N[C@@H](CC(C)C)C(=O)N[C@H](C(=O)N[C@@H](Cc1ccccc1)C(=O)N[C@]1(C)CCCCCCC=CCCC[C@@](C)(C(=O)N[C@@H](CO)C(=O)N[C@@H](C)C(=O)N[C@@H](CO)C(N)=O)NC(=O)[C@H](CC(C)C)NC(=O)[C@H](CCC(N)=O)NC(=O)[C@H](C)NC(=O)[C@H](Cc2c[nH]c3ccccc23)NC(=O)[C@H](Cc2ccc(O)cc2)NC(=O)[C@H](C)NC1=O)[C@@H](C)O [compound 122] (Ac-LTF[R8]AYWAQL[S5]SAS-NH2; staple 4-11)	1	2	15	30	1%	0%	6%	< 10 nM	< 10 nM	100 to 1000 nM	10 to 100 nM
CC(=O)N[C@@H](CC(C)C)C(=O)N[C@H](C(=O)N[C@@H](Cc1ccccc1)C(=O)N[C@]1(C)CCCCCCC=CCCC[C@@](C)(C(=O)N[C@@H](CO)C(=O)N[C@H](C(=O)NCC(N)=O)C(C)C)NC(=O)[C@H](CC(C)C)NC(=O)[C@H](CCC(N)=O)NC(=O)[C@H](C)NC(=O)[C@H](Cc2c[nH]c3ccccc23)NC(=O)[C@H](Cc2ccc(O)cc2)NC(=O)[C@H](C)NC1=O)[C@@H](C)O [compound 123] (Ac-LTF[R8]AYWAQL[S5]SVG-NH2; staple 4-11)	1	1	6	14	−2%	5%	3%	< 10 nM	< 10 nM	100 to 1000 nM	10 to 100 nM
CC(=O)N[C@@H](CCC(=O)O)C(=O)N[C@H](C(=O)N[C@@H](Cc1ccccc1)C(=O)N[C@]1(C)CCCCCCC=CCCC[C@@](C)(C(=O)N[C@@H](CO)C(=O)N[C@@H](C)C(=O)N[C@@H](C)C(N)=O)NC(=O)[C@H](CC(C)C)NC(=O)[C@H](CCC(N)=O)NC(=O)[C@H](C)NC(=O)[C@H](Cc2c[nH]c3ccccc23)NC(=O)[C@H](Cc2ccc(O)cc2)NC(=O)[C@H](C(C)C)NC1=O)[C@@H](C)O [compound 125] (Ac-ETF[R8]VYWAQL[S5]SAA-NH2; staple 4-11)	1	3	9	29	0%	0%	2%	< 10 nM	< 10 nM	100 to 1000 nM	10 to 100 nM
CC(=O)N[C@@H](CCC(=O)O)C(=O)N[C@H](C(=O)N[C@@H](Cc1ccccc1)C(=O)N[C@]1(C)CCCCCCC=CCCC[C@@](C)(C(=O)N[C@@H](CO)C(=O)N[C@H](C(=O)N[C@@H](C)C(N)=O)C(C)C)NC(=O)[C@H](CC(C)C)NC(=O)[C@H](CCC(N)=O)NC(=O)[C@H](C)NC(=O)[C@H](Cc2c[nH]c3ccccc23)NC(=O)[C@H](Cc2ccc(O)cc2)NC(=O)[C@H](C(C)C)NC1=O)[C@@H](C)O [compound 126] (Ac-ETF[R8]VYWAQL[S5]SVA-NH2; staple 4-11)	1	1	6	30	1%	1%	1%	< 10 nM	< 10 nM	100 to 1000 nM	10 to 100 nM
CC(=O)N[C@@H](CCC(=O)O)C(=O)N[C@H](C(=O)N[C@@H](Cc1ccccc1)C(=O)N[C@]1(C)CCCCCCC=CCCC[C@@](C)(C(=O)N[C@@H](CO)C(=O)N[C@H](C(=O)N[C@@H](CO)C(N)=O)C(C)C)NC(=O)[C@H](CC(C)C)NC(=O)[C@H](CCC(N)=O)NC(=O)[C@H](C)NC(=O)[C@H](Cc2c[nH]c3ccccc23)NC(=O)[C@H](Cc2ccc(O)cc2)NC(=O)[C@H](C(C)C)NC1=O)[C@@H](C)O [compound 130] (Ac-ETF[R8]VYWAQL[S5]SVS-NH2; staple 4-11)	1	2	6	17	1%	0%	−1%	< 10 nM	< 10 nM	100 to 1000 nM	10 to 100 nM

— patent publication US8927500B2, “Peptidomimetic macrocycles” (Aileron Therapeutics, Inc., priority 2012, dated 2015)
